SMILES strings stand for the structures. Where a name gives a salt, the structure may show the parent alone. Where only a bound is given, the exact number is not on record here.

In patent US7951807B2 (Abbott GmbH & Co. KG, priority 2004, dated 2011) one finds Ki data, which are given here for 15 compounds.

For one assay, the target named is T1, human V1a receptors (Homo sapiens).
T1 construct: expressed in transfected cells
The experiment in a line: Vasopressin V1a Receptor Binding Test. As to conditions: membranes of CHO cells with stably expressed human V1a receptors, 125 iodine AVP displacement. The procedure: Vasopressin V1a Receptor Binding Test
(§1) The substances were dissolved in DMSO in a concentration of 10^−2 M and further diluted in DMSO to 10^−3 M to 10^−9 M. These DMSO solutions were diluted 1:10 with a test buffer. In the test batch, the substance concentration was again diluted 1:10.
The binding test was conducted according to the method of Tahara et al. (Tahara A. et al., Brit. J. Pharmacol. 125, 1463-1470 (1998)). In the test batch (0.250 ml), membranes (50 μg protein in an incubation buffer (50 mmol tris, 10 mmol MgCl2, 0.1% BSA adjusted to pH 7.4 with HCl)) of CHO cells were incubated with stably expressed human V1a receptors (preparation V1a clone 5.0, with protease inhibitors, Roche complete Mini # 1836170) with 0.04 nmol 125 iodine AVP (NEX128) in the incubation buffer (total binding) or additionally with increasing concentrations of the test substance (displacement experiment). The non-specific binding was determined with 10^−6 M AVP. Determinations were carried out three times.
(§2) After incubation, 60 minutes at room temperature, the free radioligand was filtered off using vacuum filtration (Skatron cell harvester 7000) through Wathman GF/B fibreglass filters, and the filters were transferred to scintillation containers.
(§3) The liquid scintillation measurement was made in a Tricarb device, model 2000 or 2200CA (Packard). The conversion of the measured cpm into dpm was carried out with the help of a standard quench series.
(§4) The binding parameters were calculated using non-linear regression in SAS. The algorithms of the program work in a manner analogous to the LIGAND evaluation program (Munson P J und Rodbard D, Analytical Biochem. 107, 220-239 (1980)).
For `COc1ccccc1C1(OC(=O)N2CCN(C3CCN(C)CC3)CC2)C(=O)N(S(=O)(=O)c2ccccc2)c2ccc(Cl)cc21` (stereo not drawn) [Example 1], the Ki is less than 100 nM.
Compound `CN1CCN(C2CCN(C(=O)OC3(c4ccccc4)C(=O)N(S(=O)(=O)c4ccccc4)c4ccc(Cl)cc43)CC2)CC1` (stereo not drawn) [Example 5, 4-(4-Methyl-piperazine-1-yl)-piperidine-1-carboxylic acid-[1-benzenesulfonyl-5-chloro-2-oxo-3-phenyl-2,3-dihydro-1H-indole-3-yl] ester] yielded a Ki of less than 100 nM.
In turn, `COc1ccc(S(=O)(=O)N2C(=O)C(OC(=O)N3CCN(C4CCN(C)CC4)CC3)(c3ccccc3C)c3cc(OC)ccc32)c(OC)c1` (stereo not drawn) [Example 8, 4-(1-Methyl-piperidine-4-yl)-piperazine-1-carboxylic acid-[1-(2,4-dimethoxy-benzenesulfonyl)-5-methoxy-2-oxo-3-(2-methylphenyl)-2,3-dihydro-1H-indole-3-yl] ester dihydrochloride] returned a Ki of less than 100 nM.
On the same count and under the same terms, then `COc1ccc(S(=O)(=O)N2C(=O)C(NC(=O)N3CCN(C4CCN(C)CC4)CC3)(c3ccccc3OC)c3cc(Cl)ccc32)c(OC)c1` (stereo not drawn) [Example 3, 4-(1-Methyl-piperidine-4-yl)-piperazine-1-carboxylic acid-[1-(2,4-dimethoxy-benzenesulfonyl)-5-chloro-2-oxo-3-(2-methoxyphenyl)-2,3-dihydro-1H-indole-3-yl] amide dihydrochloride], with less than 100 nM; and `CN1CCC(N2CCN(C(=O)OC3(c4ccccc4)C(=O)N(S(=O)(=O)c4ccccc4)c4ccc(Cl)cc43)CC2)CC1` (stereo not drawn) [Example 4, 4-(1-Methyl-piperidine-4-yl)-piperazine-1-carboxylic acid-[1-benzenesulfonyl-5-chloro-2-oxo-3-phenyl-2,3-dihydro-1H-indole-3-yl] ester dihydrochloride], with less than 100 nM.
The same measure, in the same setting: with `COc1ccc(S(=O)(=O)N2C(=O)C(OC(=O)N3CCN(C4CCN(Cc5ccccc5)CC4)CC3)(c3ccccc3OC)c3cc(OC)ccc32)c(OC)c1` (stereo not drawn) [Example 13, 4-(1-Benzyl-piperidine-4-yl)-piperazine-1-carboxylic acid-[1-(2,4-dimethoxy-benzenesulfonyl)-5-methoxy-2-oxo-3-(2-methoxyphenyl)-2,3-dihydro-1H-indole-3-yl] ester] the figure was less than 100 nM.

The next assay deals with T2, human V1b receptors (Homo sapiens, UniProt P47901).
T2 construct: expressed in transfected cells
T2 sequence (P47901 1-424): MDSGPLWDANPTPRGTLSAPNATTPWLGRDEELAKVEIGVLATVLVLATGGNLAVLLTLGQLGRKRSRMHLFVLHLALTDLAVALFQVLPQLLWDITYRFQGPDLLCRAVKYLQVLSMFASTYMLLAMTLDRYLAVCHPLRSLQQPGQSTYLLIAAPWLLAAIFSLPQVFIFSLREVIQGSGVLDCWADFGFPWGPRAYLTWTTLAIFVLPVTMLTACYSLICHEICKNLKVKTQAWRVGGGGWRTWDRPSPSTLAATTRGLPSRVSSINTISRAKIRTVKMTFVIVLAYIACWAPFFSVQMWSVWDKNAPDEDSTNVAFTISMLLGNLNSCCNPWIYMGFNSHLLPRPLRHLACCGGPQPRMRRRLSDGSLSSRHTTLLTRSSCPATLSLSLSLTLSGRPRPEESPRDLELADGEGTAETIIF
The experiment in a line: Vasopressin V1b Receptor Binding Test. As to conditions: membranes of CHO-K1 cells with stably expressed human V1b receptors, 3H-AVP displacement. The procedure:
Vasopressin V1b Receptor Binding Test
as §1
The binding test was conducted according to the method of Tahara et al. (Tahara A. et al., Brit. J. Pharmacol. 125, 1463-1470 (1998)). In the test batch (0.250 ml), membranes (58 μg protein in an incubation buffer) of CHO-K1 cells were incubated with stably expressed human V1b receptors (preparation V1b-3H2, with protease inhibitors, Roche complete Mini # 1836170) with 1.5 nmol ^3H-AVP (8-Arg-Vasopressin, NET 800) in incubation buffer (50 mmol Tris, 10 mmol MgCl2, 0.1% BSA adjusted to pH 7.4 with HCl) (total binding) or additionally with increasing concentrations of the test substance (displacement experiment). The non-specific binding was determined with 10^−6 M AVP. Determinations were carried out three times.
Incubation buffer: 50 mmol tris, 10 mmol MgCl2, 0.1% BSA adjusted to pH 7.4 with HCl.
as §2, §3, §4
`COc1ccc(S(=O)(=O)N2C(=O)C(OC(=O)N3CCN(C4CCN(C)CC4)CC3)(c3ccccc3OC)c3cc(C)ccc32)c(OC)c1` (stereo not drawn) [Example 17, 4-(1-Methyl-piperidine-4-yl)-piperazine-1-carboxylic acid-[1-(2,4-dimethoxy-benzenesulfonyl)-5-methyl-2-oxo-3-(2-methoxyphenyl)-2,3-dihydro-1H-indole-3-yl] ester dihydrochloride] had a Ki of less than 100 nM.
Still for that read-out and setting: then `COc1ccc(S(=O)(=O)N2C(=O)C(OC(=O)N3CCN(C4CCN(C)CC4)CC3)(c3ccccc3OC(C)C)c3cc(OC)ccc32)c(OC)c1` (stereo not drawn) [Example 24, 4-(1-Methyl-piperidine-4-yl)-piperazine-1-carboxylic acid-[1-(2,4-dimethoxy-benzenesulfonyl)-5-methoxy-2-oxo-3-(2-isopropoxyphenyl)-2,3-dihydro-1H-indole-3-yl] ester dihydrochloride], with less than 100 nM; and `COc1ccc(S(=O)(=O)N2C(=O)C(OC(=O)N3CCN(C4CCN(C)CC4)CC3)(c3ccccc3OC)c3cc(OC)ccc32)c(OC)c1` (stereo not drawn) [Example 6, 4-(1-Methyl-piperidine-4-yl)-piperazine-1-carboxylic acid-[1-(2,4-dimethoxy-benzenesulfonyl)-5-methoxy-2-oxo-3-(2-methoxyphenyl)-2,3-dihydro-1H-indole-3-yl] ester dihydrochloride], with less than 100 nM; and `COc1ccc(S(=O)(=O)N2C(=O)C(NC(=O)N3CCN(C4CCN(C)CC4)CC3)(c3ccccc3OC)c3cc(OC)ccc32)c(OC)c1` (stereo not drawn) [Example 16, 4-(1-Methyl-piperidine-4-yl)-piperazine-1-carboxylic acid-[1-(2,4-dimethoxy-benzenesulfonyl)-5-methoxy-2-oxo-3-(2-methoxyphenyl)-2,3-dihydro-1H-indole-3-yl] amide dihydrochloride], with less than 100 nM.
Same read-out and setting: then `COc1ccc(S(=O)(=O)N2C(=O)C(OC(=O)N3CCN(C4CCN(C)CC4)CC3)(c3ccccc3OC)c3ccccc32)c(OC)c1` (stereo not drawn) [Example 23, 4-(1-Methyl-piperidine-4-yl)-piperazine-1-carboxylic acid-[1-(2,4-dimethoxy-benzenesulfonyl)-2-oxo-3-(2-methoxyphenyl)-2,3-dihydro-1H-indole-3-yl] ester dihydrochloride], with less than 100 nM; and `COc1ccc2c(c1)C(OC(=O)N1CCN(C3CCN(C)CC3)CC1)(c1ccccc1OC(C)C)C(=O)N2S(=O)(=O)c1ccc(C)cc1OC` (stereo not drawn) [Example 26, 4-(1-Methyl-piperidine-4-yl)-piperazine-1-carboxylic acid-[1-(2-methoxy-4-methyl-benzene)-sulfonyl-5-methoxy-2-oxo-3-(2-isopropoxyphenyl)-2,3-dihydro-1H-indole-3-yl] ester dihydrochloride], with less than 100 nM.
The same measure, in the same setting: with `CCOc1ccccc1C1(OC(=O)N2CCN(C3CCN(C)CC3)CC2)C(=O)N(S(=O)(=O)c2ccc(OC)cc2OC)c2ccc(OC)cc21` (stereo not drawn) [Example 30, 4-(1-Methyl-piperidine-4-yl)-piperazine-1-carboxylic acid-[1-(2,4-dimethoxy-benzenesulfonyl)-5-methoxy-2-oxo-3-(2-ethoxyphenyl)-2,3-dihydro-1H-indole-3-yl] ester dihydrochloride] the figure was less than 100 nM.
`CCCOc1ccccc1C1(OC(=O)N2CCN(C3CCN(C)CC3)CC2)C(=O)N(S(=O)(=O)c2ccc(OC)cc2OC)c2ccc(OC)cc21` (stereo not drawn) [Example 2, 4-(1-Methyl-piperidine-4-yl)-piperazine-1-carboxylic acid-[1-(2,4-dimethoxy-benzenesulfonyl)-5-methoxy-2-oxo-3-(2-propoxyphenyl)-2,3-dihydro-1H-indole-3-yl] ester]: the Ki was less than 100 nM.
Still for that read-out and setting: then `COc1ccc(S(=O)(=O)N2C(=O)C(OC(=O)N3CCN(C4CCN(C)CC4)CC3)(c3ccccc3OC)c3cc(F)ccc32)c(OC)c1` (stereo not drawn) [Example 10, 4-(1-Methyl-piperidine-4-yl)-piperazine-1-carboxylic acid-[1-(2,4-dimethoxy-benzenesulfonyl)-5-fluoro-2-oxo-3-(2-methoxyphenyl)-2,3-dihydro-1H-indole-3-yl] ester], with less than 100 nM.
